The results in this text go back to US20250326859A1, “ANTI-CANCER ANTIBODIES, COMBINATION THERAPIES, AND USES THEREOF” (PRECISION BIOLOGICS, INC., priority 2022, published 2025).

In one assay the test system is Human tumor xenografts. Briefly: In vivo localization of radiolabeled antibodies in tumor-bearing mice. Set-up: species or system SCID or nude mice. The settings on record: 111In or 86Y label, intravenous, paper example in present tense. An excerpt: Antibodies NEO-101, NEO-201, and NEO-301 are radiolabeled by conjugation to either ^111In or ^86Y using the acyclic chelate CHX-A″-DTPA. The conjugation molar ratios are empirically determined. Human tumor xenografts are introduced into SCID or nude mice, including the cell lines identified in FIG. 1 as being reactive with NEO-101, NEO-201, or NEO-301 in cell culture and optionally further cancer cell lines detected to bind those antibodies. Control xenografts non-reactive with these antibodies are also utilized. Following intravenous administration of radiolabeled antibodies in tumor-bearing mice, cell samples are harvested and analyzed. Labeled antibody biodistribution is determined with respect to the tumor and other tissues including liver and kidneys.
Additionally, xenograft bearing mice are subjected to imaging studies including planar gamma-imaging performed at multiple time points to assess the stability of labeled antibody binding to the tumor cells and measure the level of accumulation of radiolabeled antibody in other tissues.

The subject of assay [1] is colon cancer samples. Briefly: IHC on paraffin tissue sections, colon cancer. The assay is classed as binding, human. The settings on record: biotinylated antibody. An excerpt: (§1) FIG. 2. Immunohistochemistry results from cancer tissue arrays. Immunohistochemistry method (IHC) was used for determining the presence of NEO-101/102, NEO-201 and NEO-301 antigens on paraffin microarrays and tissues. These primary antibodies (NEO-101/NEO-102, NEO-201 and NEO-301) were biotinylated prior to use. Paraffin tissue Microarrays and slides of tissues were reacted with the primary Ab after inactivating endogenous peroxidase and blocking the slides. Staining was detected with streptavidin-horseradish peroxidase conjugate and visualized with chromogen. Biotinylated human IgG1 was used as negative control and mouse anti-human cytokeratin monoclonal antibody was used as positive control. Antibody staining is measured as % and intensity of tumor epithelial cells and luminal secretion within the whole tissue section.
(§2) Immunohistochemistry (IHC) was used for determining the presence of NEO-101/102, NEO-201 and NEO-301 antigens on paraffin microarrays and tissues. These primary antibodies (NEO-101/NEO-102, NEO-201 and NEO-301) were biotinylated prior to use. Paraffin tissue microarrays and slides of tissues were reacted with the primary antibody after inactivating endogenous peroxidase and blocking the slides. Staining was detected with streptavidin-horseradish peroxidase conjugate and visualized with chromogen. Biotinylated human IgG1 was used as negative control and mouse anti-human cytokeratin monoclonal antibody was used as positive control. Antibody staining was measured as % and intensity of tumor epithelial cells and luminal secretion within the whole tissue section.
(§3) The cancer cells and normal cells tested were of the following tissue origins: Colon, Pancreas, Lung, Larynx, Prostate, Esophagus, Uterus, Stomach, Skin, Breast, and Ovary.

For a further assay, the system named is uterus cancer samples. Nature of the assay: IHC on cancer tissue microarray, uterus cancer. Type of assay: binding, human. To be noted: biotinylated antibody.
Text: as §1
(§4) Immunohistochemistry (IHC) was used for determining the presence of NEO-101/102, NEO-201 and NEO-301 antigens on paraffin microarrays and tissues. These primary antibodies (NEO-101/NEO-102, NEO-201 and NEO-301) were biotinylated prior to use. […] Staining was detected with streptavidin-horseradish peroxidase conjugate and visualized with chromogen. […] Antibody staining was measured as % and intensity of tumor epithelial cells and luminal secretion within the whole tissue section. […]

The test system of assay [2] is colorectal adenocarcinoma cells. Nature of the assay: Flow cytometry antigen expression, colorectal adenocarcinoma cell lines. The assay is classed as binding, human. To be noted: primary antibody at 10 ug/mL; multiple colorectal adenocarcinoma cell lines. The procedure: (§5) FIG. 1. NEO-101, NEO-201 and NEO-301 Antigen Expression by Human Normal and Cancer Cell Lines. NEO-101, NEO-201 and NEO-301 specific antigen expression in various cell lines were detected by Flow Cytometry. Viable cell suspensions were incubated with primary antibody NEO-101, NEO-201 and NEO-301 separately at 10 ug/mL. Human IgG (10 ug/mL) was used as negative control. Goat anti-human IgG (Fc)-phycoerythrin conjugate was used for primary antibody detection; 7-ADD was used for excluding dead cells from analysis. The staining was measured by Flow Cytometry (Guava instrument, Millipore). Median fluorescent intensity (MFI) and % of stained cells was used for determining presence of specific antigen on each cell line.
(§6) Antigen expression in cell lines of various origins were detected by Flow Cytometry. Viable cell suspensions were incubated with primary antibody NEO-101, NEO-201 and NEO-301 separately at 10 ug/mL. Human IgG (10 ug/mL) was used as negative control. Goat anti-human IgG (Fc)-phycoerythrin conjugate was used for primary antibody detection; 7-ADD was used for excluding dead cells from analysis. The staining was measured by Flow Cytometry (Guava instrument, Millipore). Median fluorescent intensity (MFI) and % of stained cells was used for determining presence of specific antigen on each cell line.
(§7) The cell lines tested included breast cancer cells, cervical squamous carcinoma cells, colorectal adenocarcinoma cells, lung adenocarcinoma cells, lung carcinoma cells, lung squamous carcinoma cells, myelogenous leukemia cells, ovarian cancer cells, pancreatic adenocarcinoma cells, pancreatic carcinoma cells, prostate adenocarcinoma cells, and prostate cancer cells. Additionally, normal lung cells were tested.

Assay [3] concerns pancreatic cancer samples. Nature of the assay: IHC on paraffin tissue sections, pancreatic cancer. To be noted: biotinylated antibody. Type of assay: binding, human.
Text: as §1, §2, §3

Assay [4] deals with lung cancer samples. Nature of the assay: IHC on paraffin tissue sections, lung cancer. The assay is classed as binding, human. The settings on record: biotinylated antibody, relatively fewer samples tested.
Text: as §1, §4

For assay [5], the system named is colon cancer samples. Nature of the assay: IHC on cancer tissue microarray, colon cancer. Type of assay: binding, human. To be noted: biotinylated antibody.
Text: as §1, §2, §3

Assay [6] concerns pancreatic cancer samples. Briefly: IHC on cancer tissue microarray, pancreatic cancer. Type of assay: binding, human. To be noted: biotinylated antibody.
Text: as §1, §2, §3

Assay [7] deals with lung squamous carcinoma cells. Nature of the assay: Flow cytometry antigen expression, lung squamous cell carcinoma cell lines. The assay is classed as binding, human. The settings on record: primary antibody at 10 ug/mL; multiple lung squamous cell carcinoma cell lines. The procedure: as §5
as §6, with “line. […]” for “line.”

The subject of assay [8] is lung cancer samples. Briefly: IHC on cancer tissue microarray, lung cancer. To be noted: biotinylated antibody. The assay is classed as binding, human.
Text: as §1, §4

The next assay concerns skin cancer samples. Nature of the assay: IHC on cancer tissue microarray, skin cancer. The assay is classed as binding, human. The settings on record: biotinylated antibody.
Text: as §1, §4

The subject of assay [9] is pancreatic adenocarcinoma cells. Nature of the assay: Flow cytometry antigen expression, pancreatic adenocarcinoma cell lines. The assay is classed as binding, human. To be noted: primary antibody at 10 ug/mL. The procedure: as §5, §6, §7
On the technique in general: A flow cytometer gives signals particle by particle.

In assay [10] the test system is lung adenocarcinoma cells. Nature of the assay: Flow cytometry antigen expression, lung adenocarcinoma cell lines. Type of assay: binding, human. The settings on record: primary antibody at 10 ug/mL; multiple lung adenocarcinoma cell lines. The procedure: as §5
as §6, with “line. […]” for “line.”

A further assay concerns esophagus cancer samples. Briefly: IHC on cancer tissue microarray, esophagus cancer. To be noted: biotinylated antibody. The assay is classed as binding, human.
Text: as §1, §4

The subject of a further assay is breast cancer samples. Nature of the assay: IHC on cancer tissue microarray, breast cancer. The assay is classed as binding, human. To be noted: biotinylated antibody.
Text: as §1, §4

In the next assay the test system is stomach cancer samples. Nature of the assay: IHC on cancer tissue microarray, stomach cancer. The settings on record: biotinylated antibody. The assay is classed as binding, human.
Text: as §1, §4

As for “NEO-201: Humanized 16C3 antibody; binds epitopes in CEACAM5 and CEACAM6”, in the assay with Human tumor xenografts, the “binding of radiolabeled antibody to its antigen in vivo” value (shortened to “binding of radiolabeled antibody”) is “able to bind their respective antigens”. For the same molecule, the “cancer samples positive for the antigen” value in the assay with colon cancer samples [1] was 94%; with uterus cancer samples it was 51%; in [3], 83%; in the assay on lung cancer samples [4], 90%; in the assay on colon cancer samples [5] it was 85%; in [6] it was 86%. In addition, the “cancer samples positive for the antigen” value with lung cancer samples [8] is on record as 61%; in the assay with skin cancer samples, 16%. Besides, the “antigen expression detected by flow cytometry” value (“antigen expression detected” below) in assay [2], in assay [7], in assay [9] and in [10] was “detected” each time.

For the molecule “NEO-301: Chimeric 31.1 antibody, 2 amino acid changes in HC constant domain, produced in high titer CHO-S cells; binds A33 antigen”, the “binding of radiolabeled antibody” value in the assay on Human tumor xenografts is reported as “able to bind their respective antigens”. Further, the “cancer samples positive for the antigen” value came out at 43% with esophagus cancer samples; 52% in the assay on colon cancer samples [1]; 78% in the assay with breast cancer samples; 47% in [3]; 87% in the assay on colon cancer samples [5]; 57% in [6]. In addition, the “cancer samples positive for the antigen” value in the assay with lung cancer samples [8] is given as 56%. In addition, the “antigen expression detected” value in assay [2] and in assay [9] was “detected” throughout.

B1: NEO-101: Chimeric NPC-1 antibody, engineered in CHO-DG44 production cell clone 4B7; targets a variant of MUC5AC (protein)
light: QVVLTQSPVIMSASPGEKVTMTCSASSSISYMYWYQQKPGTSPKRWIYDTSKLASGVPARFSGSGSGTSYSLTISNMEAGDAATYYCHQRDSYPWTFGGGTNLEIK
heavy: QVQLKESGPDLVAPSQSLSITCTVSGFSLSKFGVNWVRQPPGKGLEWLGVIWGDGSTSYNSGLISRLSISKENSKSQVFLKLNSLQADDTATYYCVKPGGDYWGHGTSVTVSS
Regarding B1, the “binding of radiolabeled antibody” value in the assay on Human tumor xenografts is reported as “able to bind their respective antigens”. Besides, the “cancer samples positive for the antigen” value with colon cancer samples [1] is listed as 87%; in the assay with uterus cancer samples, 41%; in [3], 82%; in the assay on lung cancer samples [4] it was 67%; in the assay with colon cancer samples [5] it was 61%; in assay [6] it was 31%. In addition, the “cancer samples positive for the antigen” value with stomach cancer samples was determined as 30%. For the same molecule, the “antigen expression detected” value in assay [2] and in assay [9] was “detected” in each case.
